Data as given in EPA's ToxValDB 9.5 (doi:10.2903/j.efsa.2006.88r).
Converted amounts (≈) assume the structure as drawn.

Tests used:
Canidae = settings: subchronic; oral; Dog Other; histopathology: nonneoplastic
Apis mellifera = settings: acute; duration: 48 hours; oral; unspecified; mortality
[1] = acute; oral; unspecified; mortality
Daphnia magna = settings: chronic/long-term; duration: 21 days; reproduction
Oryctolagus sp. = settings: subchronic; oral; histopathology: nonneoplastic
Tagia sp. = settings: mortality

CSc1nnc(C(C)(C)C)c(=O)n1N [Metribuzin]
NOAEL (Canidae): 2 mg/kg-day | LD50 (Apis mellifera): 166 µg/piece | NOAEL (Rattus norvegicus; acute, clinical signs): > 2 mg/kg-day | NOAEL (Rattus norvegicus; chronic, duration: 2 years): 1.3 mg/kg-day | NOAEL (Rattus norvegicus; reproduction developmental, body weight): 2.2 mg/kg-day | NOAEL (Rattus norvegicus; subchronic, oral, histopathology: nonneoplastic): 2 mg/kg-day | LC50 (Oncorhynchus mykiss; acute, duration: 96 hours, mortality): 74.6 µg/mL (≈ 348 µM) | NOEC (Oncorhynchus mykiss; chronic/long-term, duration: 95 days, growth): 4.4 mg/L | LD50 [1]: 322 mg/kg | NOEC (Daphnia magna): 0.32 mg/L | NOAEL (Oryctolagus sp.): 2 mg/kg-day | LD50 (Bird; acute, oral, unspecified, mortality): 164 mg/kg | NOEC (Bird; reproductive): 28.3 mg/kg-day | LC50 (Bird; short-term, oral, feed, mortality): > 359 mg/kg-day | LC50 (Tagia sp.; acute, duration: 14 days): 427 mg/kg | NOEC (Tagia sp.; chronic/long-term, duration: 8 weeks): 5250 g/ha
